The results in this text go back to publication PMC12386561, “Broad-Spectrum Antimicrobial Potential of the γ-Core Motif Peptides of Filipendula ulmaria for Practical Applications in Agriculture and Medicine” (International Journal of Molecular Sciences, 2025).

Structures are written as SMILES. Residues, ends and D or L forms follow the SMILES beside them. Bounds are passed on as bounds.

In general, IC50 refers to the point on the concentration scale where inhibition reaches its midpoint.

For experiment [1], the system named is Pectobacterium carotovorum subsp. carotovorum VKM B-1247. The experiment can be described thus: Antimicrobial activity assay against bacteria, growth inhibition in microtiter plates. It is filed as cell-based. The conditions noted are these: modified YPD-P medium, peptide 0.5–300 µM, 30 °C, 24 h, absorbance 594 nm, triplicate, mean ± SD. An excerpt: (§1) The IC50 values are presented as mean ± standard deviations.

For another experiment, the system named is F. oxysporum VKM F-137. It counts as cell-based, Fusarium oxysporum. The settings on record: spores in half-strength potato dextrose broth, peptide 5–300 µM, 48 h, absorbance 595 nm, triplicate, mean ± SD; for IC50: read-out: IC50 against F. oxysporum. As for the experimental part:
(§2) The inhibitory activity of peptides on spore germination and growth of fungi was tested against nine fungal strains from the VKM: Fusarium culmorum VKM F-2303, F. oxysporum VKM F-137, F. solani VKM F-142, F. verticillioides VKM F-670, Aspergillus unguis VKM F-1754, Bipolaris sorokiniana VKM F-4006, Botrytis cinerea VKM F-4549, Rhizoctonia solani VKM F-895, and Penicillium gladioli VKM F-2088. The fungi were cultivated on potato dextrose agar at 25 °C for 7–8 days, while B. sorokiniana and B. cinerea were grown for 10–12 days. Spores were obtained by washing from the surface of the mycelia with sterile distilled water and filtered through a sterile filter. The filtrate was centrifuged at 6000 rpm for 15 min. The precipitate was washed three times with sterile distilled water and centrifuged at 10,000 rpm for 2 min. A total of 1 mL of sterile aqueous 20% glycerol solution was added to the spores, and spores were stored at −20 °C.
(§3) The antifungal effect of peptides was determined in microtiter plates by measuring the absorbance of the spore suspension in the presence of the peptide relative to the control. In the wells of a plate, 90 µL of spore suspension in half-strength potato dextrose broth at a concentration of 2000–3000 spores in 100 µL was mixed with 10 µL of aqueous solutions of peptides to obtain final concentrations of 5–300 µM. Each experiment was carried out in triplicate. The concentration of spores in the suspension was determined in a Goryaev chamber. The absorbance was recorded at 595 nm on a FilterMax F5 Multi-Mode Microplate Reader (Molecular Devices, San Jose, CA, USA) after 48 h of incubation. The antimicrobial activity was expressed in IC50 values.

The subject of experiment [2] is Fusarium culmorum VKM F-2303. The experiment can be described thus: Antifungal activity assay, spore germination and growth. It is filed as cell-based. The settings on record: spores in half-strength potato dextrose broth, peptide 5–300 µM, 48 h, absorbance 595 nm, triplicate, mean ± SD; for IC50: read-out: IC50 against F. culmorum. As for the experimental part: as §2, §3

Experiment [3] relates to Bipolaris sorokiniana VKM F-4006. The experiment is described as above. It is filed as cell-based. The conditions noted are these: spores in half-strength potato dextrose broth, peptide 5–300 µM, 48 h, absorbance 595 nm, triplicate, mean ± SD; read-out: IC50 against B. sorokiniana. As for the experimental part:
as §2, §3

In a further experiment the test system is F. solani VKM F-142. It counts as cell-based, Fusarium solani. The conditions noted are these: spores in half-strength potato dextrose broth, peptide 5–300 µM, 48 h, absorbance 595 nm, triplicate, mean ± SD; for IC50: read-out: IC50 against F. solani. Here is the method: as §2, §3
The next experiment has as its system C. tropicalis VKM Y-2771. It is filed as cell-based, Candida tropicalis. The conditions noted are these: YPD-P medium, peptide 0.5–300 µM, 30 °C, 24 h, absorbance 594 nm, triplicate, mean ± SD; read-out: IC50 against C. tropicalis.
Description: as §1

Experiment [4] deals with Candida albicans VKM Y-2994. It is filed as cell-based. The conditions noted are these: YPD-P medium, peptide 0.5–300 µM, 30 °C, 24 h, absorbance 594 nm, triplicate, mean ± SD; read-out: IC50 against C. albicans.
Description: as §1

Experiment [5] deals with Pseudomonas savastanoi pv. savastanoi VKM B-1546. It counts as cell-based. The conditions noted are these: medium without glucose, peptide 0.5–300 µM, 30 °C, 24 h, absorbance 594 nm, triplicate, mean ± SD; for IC50: read-out: IC50 against P. savastanoi.
Description: as §1

Experiment [6] deals with Aspergillus unguis VKM F-1754. It counts as cell-based. The settings on record: spores in half-strength potato dextrose broth, peptide 5–300 µM, 48 h, absorbance 595 nm, triplicate, mean ± SD; read-out: IC50 against A. unguis. As for the experimental part: as §2, §3
The subject of experiment [7] is Penicillium gladioli VKM F-2088. It is filed as cell-based. The conditions noted are these: spores in half-strength potato dextrose broth, peptide 5–300 µM, 48 h, absorbance 595 nm, triplicate, mean ± SD; read-out: IC50 against P. gladioli. As for the experimental part:
as §2, §3

Experiment [8] concerns Botrytis cinerea VKM F-4549. It counts as cell-based. The settings on record: spores in half-strength potato dextrose broth, peptide 5–300 µM, 48 h, absorbance 595 nm, triplicate, mean ± SD; read-out: IC50 against B. cinerea. Here is the method: as §2, §3
Experiment [9] deals with Cryptococcus neoformans VKM Y-2755. The conditions noted are these: read-out: IC50 against C. neoformans; YPD-P medium, peptide 0.5–300 µM, 30 °C, 24 h, absorbance 594 nm, triplicate, mean ± SD.
In experiment [10] the test system is F. verticillioides VKM F-670. It counts as cell-based, Fusarium verticillioides. The settings on record: spores in half-strength potato dextrose broth, peptide 5–300 µM, 48 h, absorbance 595 nm, triplicate, mean ± SD; for IC50: read-out: IC50 against F. verticillioides. As for the experimental part: as §2, §3
The subject of experiment [11] is Clavibacter michiganensis subsp. michiganensis VKM Ac-1403. The experiment can be described thus: Antimicrobial activity assay against bacteria, growth inhibition in microtiter plates. It counts as cell-based. The settings on record: modified YPD-P medium, peptide 0.5–300 µM, 30 °C, 24 h, absorbance 594 nm, triplicate, mean ± SD.
Description: as §1

For experiment [12], the system named is Rhizoctonia solani VKM F-895. The experiment can be described thus: Antifungal activity assay, spore germination and growth. The conditions noted are these: spores in half-strength potato dextrose broth, peptide 5–300 µM, 48 h, absorbance 595 nm, triplicate, mean ± SD; read-out: IC50 against R. solani. It counts as cell-based. Here is the method: as §2, §3

Consider `CC[C@H](C)[C@H](NC(=O)[C@H](Cc1c[nH]cn1)NC(=O)[C@H](CO)NC(=O)[C@H](CS)NC(=O)[C@H](CCCCN)NC(=O)CN)C(=O)N[C@@H](CC(C)C)C(=O)N[C@@H](CCCNC(=N)N)C(=O)N[C@@H](CCCNC(=N)N)C(=O)N[C@@H](CS)C(=O)N[C@@H](Cc1ccccc1)C(=O)N[C@@H](CS)C(=O)N[C@H](C(=O)N[C@H](C(=O)N[C@@H](Cc1c[nH]cn1)C(=O)N[C@@H](CS)C(=O)O)[C@@H](C)O)[C@@H](C)O` [FuD0] (H-GKCSHILRRCFCTTHC-OH; N-terminus and C-terminus assumed), for which, in experiment [1], the IC50 was more than 300 µM.
As to `CC[C@H](C)[C@H](NC(=O)[C@H](CS)NC(=O)[C@H](C)NC(=O)CN)C(=O)N[C@@H](C)C(=O)N[C@@H](CCCNC(=N)N)C(=O)N[C@@H](CS)C(=O)N[C@@H](CCCNC(=N)N)C(=O)N[C@@H](CC(C)C)C(=O)N[C@@H](CO)C(=O)N[C@@H](CO)C(=O)N[C@@H](CCCNC(=N)N)C(=O)N1CCC[C@H]1C(=O)N[C@@H](CC(N)=O)C(=O)N[C@@H](CC(C)C)C(=O)N[C@@H](CS)C(=O)N[C@@H](CCCCN)C(=O)N[C@@H](CCCNC(=N)N)C(=O)O` [γ48-67FuSN6] (H-GACIARCRLSSRPNLCKR-OH; N-terminus and C-terminus assumed), the IC50 is 15.8 ± 0.6 µM in the experiment on F. oxysporum VKM F-137; 19.3 ± 1.2 µM in [2]; 46.2 ± 3.2 µM in experiment [3]; 51.4 ± 0.9 µM in the experiment on F. solani VKM F-142; 1.7 ± 0.6 µM with C. tropicalis VKM Y-2771; more than 300 µM in [4]. Besides, the IC50 in [5] turned out to be 97.2 ± 0.2 µM; in experiment [6], 2.1 µM; in [7], 93.8 ± 4.2 µM; in experiment [8], 154 ± 4.4 µM; in experiment [9], 5.5 ± 0.2 µM; in experiment [10] it was 38 ± 4.6 µM. Further, the IC50 in [11] was 34.7 ± 0.5 µM; in experiment [1], more than 300 µM.
On to `CC(C)C[C@H](NC(=O)[C@H](CCCCN)NC(=O)[C@H](CS)NC(=O)[C@H](CCCNC(=N)N)NC(=O)CN)C(=O)N[C@@H](CO)C(=O)N[C@@H](CO)C(=O)N[C@@H](CCCNC(=N)N)C(=O)N1CCC[C@H]1C(=O)N[C@@H](CCCCN)C(=O)N[C@@H](CC(C)C)C(=O)N[C@@H](CS)C(=O)N[C@@H](CCCCN)C(=O)N[C@@H](CCCNC(=N)N)C(=O)O` [γ54-69FuSN5] (H-GRCKLSSRPKLCKR-OH; N-terminus and C-terminus assumed), for which the IC50 in experiment [3], in [12], in experiment [8] and in experiment [1] was more than 300 µM throughout.
On to `CC[C@H](C)[C@H](NC(=O)[C@H](Cc1c[nH]cn1)NC(=O)[C@H](CO)NC(=O)[C@H](CS)NC(=O)[C@H](CCCCN)NC(=O)CN)C(=O)N[C@@H](CC(C)C)C(=O)N[C@@H](CCCNC(=N)N)C(=O)N[C@@H](CCCNC(=N)N)C(=O)N[C@@H](CS)C(=O)N[C@@H](CCCNC(=N)N)C(=O)N[C@@H](CS)C(=O)N[C@@H](CO)C(=O)N[C@@H](CCCCN)C(=O)N[C@@H](CO)C(=O)N[C@@H](CS)C(=O)O` [γ59-74FuDEFL1-1] (H-GKCSHILRRCRCSKSC-OH; N-terminus and C-terminus assumed), for which the IC50 in [1] is more than 300 µM.
Molecule `CC[C@H](C)[C@H](NC(=O)[C@H](Cc1c[nH]cn1)NC(=O)[C@H](CO)NC(=O)[C@H](CS)NC(=O)[C@H](CCCCN)NC(=O)CN)C(=O)N[C@@H](CC(C)C)C(=O)N[C@@H](CCCNC(=N)N)C(=O)N[C@@H](CCCNC(=N)N)C(=O)N[C@@H](CS)C(=O)N[C@@H](CCC(N)=O)C(=O)N[C@@H](CS)C(=O)N[C@@H](CC(C)C)C(=O)N[C@@H](CCCCN)C(=O)N[C@@H](CO)C(=O)N[C@@H](CS)C(=O)O` [γ61-76FuDEFL1-7] (H-GKCSHILRRCQCLKSC-OH; N-terminus and C-terminus assumed) had an IC50 in [1] of more than 300 µM.
For `CSCC[C@H](NC(=O)[C@H](CC(=O)O)NC(=O)[C@@H](NC(=O)[C@H](Cc1ccc(O)cc1)NC(=O)[C@H](CS)NC(=O)[C@H](CO)NC(=O)CN)[C@@H](C)O)C(=O)N[C@H](C(=O)N[C@H](C(=O)N[C@@H](Cc1c[nH]cn1)C(=O)NCC(=O)N[C@@H](CC(N)=O)C(=O)N[C@@H](CCCNC(=N)N)C(=O)N[C@@H](CC(C)C)C(=O)N[C@@H](CCCCN)C(=O)N[C@@H](CS)C(=O)N1CCC[C@H]1C(=O)O)[C@@H](C)O)[C@@H](C)O` [γ88-104FuSN3] (H-GSCYTDMTTHGNRLKCP-OH; N-terminus and C-terminus assumed), in the experiment on F. oxysporum VKM F-137, the “IC50 against F. oxysporum” value is “inactive”. For the same molecule, the IC50 (in the experiment on F. oxysporum VKM F-137; in experiment [2]; in the experiment on F. solani VKM F-142; in experiment [4]; in experiment [5]; in experiment [11]) was more than 300 µM throughout. In [1], this molecule came in with an IC50 of more than 300 µM. In addition, the “IC50 against F. culmorum” value in experiment [2] was “inactive”. In the experiment on F. solani VKM F-142, the “IC50 against F. solani” value is “inactive”. Besides, the “IC50 against P. savastanoi” value in [5] was “failed to inhibit the growth”. Also, the “IC50 against F. verticillioides” value in experiment [10] is recorded as “very low activity”. Also, in experiment [11], the “IC50 against C. michiganensis” value is reported as “failed to inhibit the growth”. In addition, the “IC50 against P. carotovorum” value in experiment [1] was “failed to inhibit the growth”.
Consider `CC(C)C[C@H](NC(=O)CN)C(=O)N[C@@H](CS)C(=O)N[C@@H](CCCCN)C(=O)N[C@@H](Cc1ccc(O)cc1)C(=O)N[C@@H](CCCNC(=N)N)C(=O)N[C@@H](CS)C(=O)N[C@@H](CO)C(=O)N[C@@H](CC(C)C)C(=O)N[C@@H](Cc1c[nH]cn1)C(=O)N[C@@H](CO)C(=O)N[C@@H](CCCNC(=N)N)C(=O)N1CCC[C@H]1C(=O)N[C@@H](CC(N)=O)C(=O)N[C@H](C(=O)N[C@@H](CS)C(=O)N[C@@H](Cc1ccccc1)C(=O)N[C@@H](CCCNC(=N)N)C(=O)O)C(C)C` [γ89-106SlSN9, reference compound] (H-GLCKYRCSLHSRPNVCFR-OH), for which the IC50 in the experiment with F. oxysporum VKM F-137 was 34.1 ± 1 µM; in [2], 23.1 ± 4.5 µM; in [3] it was 55.1 ± 7 µM; in experiment [12], 130 ± 2.9 µM; in the experiment with F. solani VKM F-142, 50.5 ± 1.4 µM; in the experiment on C. tropicalis VKM Y-2771, 6.1 ± 0.1 µM. Besides, the IC50 in experiment [4] is 214 ± 47.1 µM; in [5], 127.6 ± 0.9 µM; in experiment [6] it was 3.3 ± 0.2 µM; in experiment [7], 93.6 ± 5.2 µM; in experiment [8] it was 118 ± 12 µM; in experiment [9], 6.3 ± 3.8 µM. In addition, the IC50 in experiment [10] turned out to be 32.3 ± 6.5 µM; in experiment [11], 41.9 ± 0.5 µM.
